Measurements reported in US20240325493A1, “REGULATOR OF TUMOR CELL FUNCTIONS AND USES THEREOF” (Washington University, priority 2023, published 2024).

What was measured:
[1] = test system: Zbtb46 in MCEC (mouse cardiac endothelial cells); assay: Zbtb46 mRNA expression in MCEC cells treated with tumor-derived factors; type: cell-based; settings: in vitro, 24 hours
Procedure: FIG. 13A is a set of graphs of Zbtb46 mRNA expression in MCEC cells, with loading control b-Actin (left) and Gapdh (right), treated with PBS or tumor-conditioned media (TCM) for 24 hours. n≥3/group. One-way ANOVA with Dunnett's test.
(§1) Quantitative real-time reverse transcription PCR (qRT-PCR) was performed. cDNA was prepared with qScript™ CDNA SuperMix (Cat: 101414-106, VWR) according to the manufacturer's protocol. Gene expression was measured by quantitative real-time RT-PCR using primers.

[2] = test system: Zbtb46 in bone marrow-derived dendritic cells (BMDC); assay: Zbtb46 mRNA expression in bone marrow-derived dendritic cells treated with tumor-derived factors; type: cell-based, mouse; settings: in vitro, 24 hours, vs PBS
Procedure: FIG. 13B is a graph of Zbtb46 mRNA expression in bone marrow-derived dendritic cells (BMDC) treated with PBS, prostaglandin E2 (PGE2), vascular endothelial growth factor (VEGF), or retinoic acid (RA) for 24 hours. n≥3/group. One-way ANOVA with Dunnett's test.
as §1

Molecule	Zbtb46 expression in EC [1]	Zbtb46 expression in DC [2]
CCCCC[C@H](O)/C=C/[C@H]1[C@H](O)CC(=O)[C@@H]1C/C=C\CCCC(=O)O [PGE2, prostaglandin E2]	downregulated	downregulated
VEGF	downregulated	downregulated
